Laboratory results: US10800741B2 (ANCUREALL PHARMACEUTICAL (SHANGHAI) CO., LTD., priority 2017, dated 2020)
pIC50: −log10 of the molar value. Like-named read-outs stand apart in the source and are kept apart here.

Tests used:
Type in all cases: cell-based, Human
Karpas 299 (NPM-ALK) = assay: In vitro growth inhibition of Karpas 299 tumor cells (MTT/CCK8)
Hep3B2 (FGFR3/4+++) = assay: In vitro growth inhibition of Hep3B2 tumor cells (MTT/CCK8); conditions: read-out: IC50 Hep3B2 (FGFR3/4+++)
H1581 (FGFR1 amp) = assay: In vitro growth inhibition of H1581 tumor cells (MTT/CCK8)
H1703 (PDGFRa amp) = assay: In vitro growth inhibition of H1703 tumor cells (MTT/CCK8)
MOLM-13 (FLT3-ITD) = assay: In vitro growth inhibition of MOLM-13 tumor cells (MTT/CCK8)
Kasumi-1 (KIT N822K) = assay: In vitro growth inhibition of Kasumi-1 tumor cells (MTT/CCK8)
KATO III (FGFR2 amp) = assay: In vitro growth inhibition of KATO III tumor cells (MTT/CCK8); conditions: read-out: IC50 KATO III (FGFR2 amp)
KCL-22 (BCR-ABL) = assay: In vitro growth inhibition of KCL-22 tumor cells (MTT/CCK8)
[1] = Homo sapiens, KARPAS-299, in vitro growth inhibition (or induction of apoptosis), cells cultured 3 to 5 days, MTT (CCK8), read-out: IC50 Karpas 299 (NPM-ALK)
[2] = Homo sapiens, Hep3B, in vitro growth inhibition (or induction of apoptosis), cells cultured 3 to 5 days, MTT (CCK8)
[3] = Homo sapiens, NCI-H1581, in vitro growth inhibition (or induction of apoptosis), cells cultured 3 to 5 days, MTT (CCK8), read-out: IC50 H1581 (FGFR1 amp)
[4] = Homo sapiens, NCI-H1703, in vitro growth inhibition (or induction of apoptosis), cells cultured 3 to 5 days, MTT (CCK8), read-out: IC50 H1703 (PDGFRa amp)
[5] = Homo sapiens, MOLM-13, in vitro growth inhibition (or induction of apoptosis), cells cultured 3 to 5 days, MTT (CCK8), read-out: IC50 MOLM-13 (FLT3-ITD)
[6] = Homo sapiens, Kasumi 1, in vitro growth inhibition (or induction of apoptosis), cells cultured 3 to 5 days, MTT (CCK8), read-out: IC50 Kasumi-1 (KIT N822K)
[7] = Homo sapiens, KATO III, in vitro growth inhibition (or induction of apoptosis), cells cultured 3 to 5 days, MTT (CCK8)
[8] = Homo sapiens, KCL-22, in vitro growth inhibition (or induction of apoptosis), cells cultured 3 to 5 days, MTT (CCK8), read-out: IC50 KCL-22 (BCR-ABL)
[9] = in vitro growth inhibition (or induction of apoptosis), cells cultured 3 to 5 days, MTT (CCK8)

pIC50 (Karpas 299 (NPM-ALK); [1]) | pIC50 (Hep3B2 (FGFR3/4+++); [2]) | pIC50 (H1581 (FGFR1 amp); [3]) | pIC50 (H1703 (PDGFRa amp); [4]) | pIC50 (MOLM-13 (FLT3-ITD); [5]) | pIC50 (Kasumi-1 (KIT N822K); [6]) | pIC50 (KATO III (FGFR2 amp); [7]) | pIC50 (KCL-22 (BCR-ABL); [8]) | SMILES | other results
< 6.00 | < 6.00 | < 6.00 | < 6.00 | < 6.00 | < 6.00 | < 6.00 | < 6.00 | C=CC(=O)N1CCC(NC(=O)Nc2ccc(Oc3ccnc4cc(OC)c(C(N)=O)cc34)cc2Cl)C1 (stereo not drawn) [Compound 70, 4-{3-chloro-4-[3-(1-acryloylpyrrolidin-3-yl)-ureido]-phenoxy}-7-methoxyquinolin-6-carboxamide] | –
< 6.00 | < 6.00 | < 6.00 | < 6.00 | < 6.00 | < 6.00 | < 6.00 | ≤ 6.00 | CCN1CCN(c2ccc(Nc3cc(NC(=O)Nc4ccc(Oc5ccnc6cc(OC)c(C(N)=O)cc56)c(Cl)c4Cl)ncn3)cc2)CC1 [Compound 71] | –
– | – | – | – | – | – | – | – | CNC(=O)c1cc2c(Oc3ccc(NC(=O)n4nc(C(C)(C)C)cc4N)c(Cl)c3)ccnc2cc1OC [Compound 72] | pIC50 (Karpas 299 (NPM-ALK); Homo sapiens, KARPAS-299, read-out: IC50 Karpas 299 (NPM-ALK)): 6.13; pIC50 (Hep3B2 (FGFR3/4+++); Homo sapiens, Hep3B): 6.80; pIC50 (H1581 (FGFR1 amp); Homo sapiens, NCI-H1581, read-out: IC50 H1581 (FGFR1 amp)): 6.78; pIC50 (H1703 (PDGFRa amp); Homo sapiens, NCI-H1703, read-out: IC50 H1703 (PDGFRa amp)): 6.60; pIC50 (MOLM-13 (FLT3-ITD); Homo sapiens, MOLM-13, read-out: IC50 MOLM-13 (FLT3-ITD)): 7.29; pIC50 (Kasumi-1 (KIT N822K); Homo sapiens, Kasumi 1, read-out: IC50 Kasumi-1 (KIT N822K)): 6.86; pIC50 (KATO III (FGFR2 amp); Homo sapiens, KATO III): 8.21; pIC50 (KCL-22 (BCR-ABL); Homo sapiens, KCL-22, read-out: IC50 KCL-22 (BCR-ABL)): 6.93
7.05 | 6.54 | 6.86 | 6.65 | 6.71 | 6.89 | 6.58 | 7.09 | COc1cc(Oc2ccnc3cc(OC)c(C(N)=O)cc23)ccc1NC(=O)n1nc(C(C)(C)C)cc1N [Compound 73, 4-{4-[(5-amino-3-tert-butyl-pyrazol-1-carbonyl)-amino]-3-methoxy-phenoxy}-7-methoxyquinolin-6-carboxamide] | –
< 6.00 | < 6.00 | < 6.00 | < 6.00 | < 6.00 | < 6.00 | < 6.00 | < 6.00 | COc1cc2nccc(Oc3ccc(NC(=O)N4CCc5ccsc5C4)c(Cl)c3)c2cc1C(N)=O [Compound 74, 4-{3-chloro-4-[(4,7-dihydro-5H-thieno[2,3-c]pyridin-6-carbonyl)-amino]-phenoxy}-7-methoxyquinolin-6-carboxamide] | –
< 6.00 | < 6.00 | < 6.00 | < 6.00 | < 6.00 | < 6.00 | < 6.00 | < 6.00 | CNC(=O)c1cc2c(Oc3ccc(NC(=O)N4CCN(C)CC4)c(Cl)c3Cl)ccnc2cc1OCCOC [Compound 75, 4-{2,3-dichloro-4-[(4-methyl-piperazin-1-carbonyl)-amino]-phenoxy}-7-(2-methoxy-ethoxy)-quinolin-6-carboxylic acid methylamide] | –
< 6.00 | < 6.00 | < 6.00 | 6.43 | < 6.00 | ≤ 6.00 | 6.44 | < 6.00 | CNC(=O)c1cc2c(Oc3ccc(NC(=O)N4CCCC4)c(Cl)c3Cl)ccnc2cc1OCCOC [Compound 76, 4-{2,3-dichloro-4-[(pyrrolidin-1-carbonyl)-amino]-phenoxy}-7-(2-methoxy-ethoxy)-quinolin-6-carboxylic acid methylamide] | –
< 6.00 | 6.31 | 6.62 | 6.67 | 7.37 | 6.29 | 7.77 | 6.53 | COc1cc2nccc(Nc3ccc(NC(=O)Nc4cc(C(C)(C)C)on4)c(Cl)c3)c2cc1C(N)=O [Compound 77, 4-{4-[3-(5-tert-butyl-isoxazol-3-yl)-ureido]-3-chlorophenylamino}-7-methoxyquinolin-6-carboxamide] | –
< 6.00 | 6.30 | 6.16 | 6.35 | 8.86 | < 6.00 | 7.44 | < 6.00 | COc1cc2nccc(Nc3ccc(NC(=O)Nc4cc(C(C)(C)C)on4)cc3)c2cc1C(N)=O [Compound 78, 4-{4-[3-(5-tert-butyl-isoxazol-3-yl)-ureido]-phenylamino}-7-methoxyquinolin-6-carboxamide] | –
< 6.00 | 6.42 | 6.60 | 6.56 | 6.97 | < 6.00 | 7.70 | < 6.00 | COc1cc2nccc(Nc3ccc(NC(=O)Nc4cc(C(C)(C)C)n[nH]4)c(Cl)c3)c2cc1C(N)=O [Compound 79, 4-{4-[3-(5-tert-butyl-2H-pyrazol-3-yl)-ureido]-3-chlorophenylamino}-7-methoxyquinol in-6-carboxamide] | –
– | – | – | – | – | – | – | – | CC(C)(C)c1cc(NC(=O)Nc2ccc(Oc3ccnc4cc(OCCN5CCOCC5)c(C(N)=O)cc34)cc2Cl)[nH]n1 [Compound 81, 4-{4-[3-(5-tert-butyl-2H-pyrazol-3-yl)-ureido]-3-chloro-phenoxy}-7-(2-morpholin-4-yl-ethoxy) pyridine-6-carboxamide] | pIC50 (Karpas 299 (NPM-ALK); in vitro growth inhibition (or induction of apoptosis), cells cultured 3 to 5 days, MTT (CCK8), read-out: IC50 Karpas 299 (NPM-ALK)): 6.33; pIC50 (Hep3B2 (FGFR3/4+++); [9]): 7.35; pIC50 (H1581 (FGFR1 amp); in vitro growth inhibition (or induction of apoptosis), cells cultured 3 to 5 days, MTT (CCK8), read-out: IC50 H1581 (FGFR1 amp)): 8.31; pIC50 (H1703 (PDGFRa amp); in vitro growth inhibition (or induction of apoptosis), cells cultured 3 to 5 days, MTT (CCK8), read-out: IC50 H1703 (PDGFRa amp)): 7.95; pIC50 (MOLM-13 (FLT3-ITD); in vitro growth inhibition (or induction of apoptosis), cells cultured 3 to 5 days, MTT (CCK8), read-out: IC50 MOLM-13 (FLT3-ITD)): 7.92; pIC50 (Kasumi-1 (KIT N822K); in vitro growth inhibition (or induction of apoptosis), cells cultured 3 to 5 days, MTT (CCK8), read-out: IC50 Kasumi-1 (KIT N822K)): 7.57; pIC50 (KATO III (FGFR2 amp); [9]): 9.51; pIC50 (KCL-22 (BCR-ABL); in vitro growth inhibition (or induction of apoptosis), cells cultured 3 to 5 days, MTT (CCK8), read-out: IC50 KCL-22 (BCR-ABL)): 7.46
6.76 | 7.62 | 8.44 | 8.03 | 8.77 | 8.28 | 8.53 | 7.69 | CN1CCN(CCCOc2cc3nccc(Oc4ccc(NC(=O)Nc5cc(C(C)(C)C)n[nH]5)c(Cl)c4)c3cc2C(N)=O)CC1 [Compound 82, 4-{4-[3-(5-tert-butyl-2H-pyrazol-3-yl)-ureido]-3-chloro-phenoxy}-7-[3-(4-methyl-piperazin-1-yl)-propoxy]-quinolin-6-carboxamide] | –
6.07 | 6.82 | 7.03 | 7.23 | 7.82 | 6.59 | 8.23 | 6.72 | CN(C)CCOc1cc2nccc(Oc3ccc(NC(=O)Nc4cc(C(C)(C)C)n[nH]4)c(Cl)c3)c2cc1C(N)=O [Compound 83] | –
< 6.00 | 6.83 | 6.94 | 6.90 | 7.45 | 6.62 | 8.22 | 6.54 | CC(C)(C)c1cc(NC(=O)Nc2ccc(Oc3ccnc4cc(OCCN5CCCCC5)c(C(N)=O)cc34)cc2Cl)[nH]n1 [Compound 84, 4-{4-[3-(5-tert-butyl-2H-pyrazol-3-yl)-ureido]-3-chloro-phenoxy}-7-(2-piperidin-1-yl-ethoxy)-quinolin-pyridine-6-carboxamide] | –
6.58 | 7.78 | 7.85 | 7.85 | 8.55 | 8.19 | 8.72 | 7.48 | COCCN1CCN(CCCOc2cc3nccc(Oc4ccc(NC(=O)Nc5cc(C(C)(C)C)n[nH]5)c(Cl)c4)c3cc2C(N)=O)CC1 [Compound 85, 4-{4-[3-(5-tert-butyl-2H-pyrazol-3-yl)-ureido]-3-chloro-phenoxy}-7-{3-[4-(2-methoxy-ethyl)-piperazin-1-yl]-propoxy}-quinolin-6-carboxamide] | –
